From PMC2359919, “Molecular targeting of retinoic acid metabolism in neuroblastoma: the role of the CYP26 inhibitor R116010 in vitro and in vivo” (British Journal of Cancer, 2007)
Like-named read-outs stand apart in the source and are kept apart here.

Tests used:
[1] = Pharmacokinetic analysis of RA in an SH-SY5Y xenograft model (retinoid concentrations in plasma, liver, tumour by LC/MS); assay type: in vivo, CD-1 nude mice; conditions: for % Total retinoids, tumour, 0.5 h / % Total retinoids, tumour, 2 h / % Total retinoids, tumour, 6 h / % Total retinoids, liver, 0.5 h / % Total retinoids, liver, 2 h / % Total retinoids, liver, 6 h / % Total retinoids, plasma, 0.5 h / % Total retinoids, plasma, 2 h / % Total retinoids, plasma, 6 h / concentration at 0.5 h / concentration at 2 h / concentration at 6 h: label = retinoid measured; for concentration at 0.5 h / concentration at 2 h / concentration at 6 h / Tmax: female, CD-1 nu/nu (athymic nude), mouse; for concentration at 0.5 h / concentration at 2 h / concentration at 6 h: po; for Tmax: 100 mg kg^−1 oral, sampled at 0.5, 2, 6 h, read-out: Time of peak plasma levels
Protocol: (§1) All in vivo experiments were approved by the relevant institutional animal welfare committees, and performed according to national law. Female athymic nude mice (CD-1 nu/nu, Charles River) used for antitumour studies were maintained and handled in isolators, under specific pathogen-free conditions, at 24°C with a 12 h light, 12 h dark cycle. Tumours were generated by implantation of SH-SY5Y cells subcutaneously (s.c.) into one flank of CD-1 nude mice (1 × 10^7 cells per animal).
(§2) Treatments began when the tumours were between 7 and 10 mm in length and breadth. Retinoids and R116010 were initially dissolved in DMSO before 10- or 20-fold dilutions in PBS, respectively. For pharmacokinetic studies, the animals were dosed with ATRA or 13cisRA (each 100 mg kg^−1) orally for 0.5, 2 and 6 h. For metabolism studies, animals were treated with R116010 orally at doses of 1.25 or 2.5 mg kg^−1 either immediately before the retinoid being studied, or up to three times (over 1–2 days) before dosing with the retinoid. At termination of experiments, animals were bled under terminal anaesthesia then killed by cervical dislocation. Plasma was immediately removed from the blood by centrifugation at 1000 g for 5 min and snap-frozen in liquid nitrogen in amber Eppendorfs. Tumour and liver samples were removed and snap-frozen, wrapped in foil, in liquid nitrogen.
(§3) Cell pellets obtained from retinoid incubations were re-suspended in 2 ml cell culture medium and disrupted by passing the samples several times through a syringe and hypodermic needle (25G × 1 inches, 0.5 mm × 25 mm; Terumo, Somerset, NJ, USA). Tumour and liver tissues were re-suspended in PBS and homogenised (T25 homogeniser, IKA Laboratories, Staufen, Germany). Retinoids were extracted as described previously ([Veal et al, 2002]; [Armstrong et al, 2005b]). Samples were reconstituted in 200 μl mobile phase A (n-hexane:dichloromethane:propan-2-ol, 400 : 1 : 0.27) and analysed by normal-phase HPLC as described previously ([Veal et al, 2002]). For LC/MS analysis, samples were reconstituted in 200 μl mobile phase A (50% acetonitrile, 50% (0.2%) acetic acid, v v^−1).
(§4) Resolution of retinoids was performed with a Luna C18(2) column (3 μm, 50 mm × 2 mm) using a Perkin Elmer LC (Beaconsfield, UK) system, consisting of a vacuum degasser, two series 200 pumps, a thermostatically controlled series 200 autosampler and a Waters 2487 UV absorbance detector. Retinoic isomers and metabolites were separated by gradient reversed-phase chromatography. An injection volume of 20 μl with a flow rate of 0.2 ml min^−1 was used with mobile phase A (50% acetonitrile, 50% (0.2%) acetic acid, v v^−1) and mobile phase B (acetonitrile, 0.1% acetic acid, v v^−1). Linear gradients were employed between the specified times as follows: 0, 100% A; 5 min, 100% A; 15 min, 100% B; 20 min, 100% B; 23 min, 100% A; 35 min, 100% A. An Applied Biosystems (Warrington, UK) API-2000 LC/MS/MS triple Q (quadrupole) mass spectrometer with electrospray ionisation source, controlled by Analyst software, was operated in single quadrupole negative mode for the detection of compounds.

[2] = Effect of R116010 on retinoid concentrations (plasma, liver, tumour) in an SH-SY5Y xenograft model, LC/MS; assay type: in vivo, CD-1 nude mice; conditions: female, CD-1 nu/nu (athymic nude), mouse, tumour (SH-SY5Y xenograft), oral; 13cisRA 100 mg kg^−1 alone; SH-SY5Y tumour; 6 h; read-out: Tumour 13cisRA levels, control animals
Protocol: as §1, §2, §3, §4

[3] = set-up: method as in Villablanca et al, 1995; conditions: high-dose pulse therapy after autologous bone marrow transplantation or non-myeloablative therapy; ref Villablanca et al, 1995; cited from earlier work
[4] = after 13cisRA 100 mg kg^−1 oral, SH-SY5Y tumour
[5] = after 13cisRA 100 mg kg^−1 oral, liver
[6] = after 13cisRA 100 mg kg^−1 oral, plasma
[7] = after ATRA 100 mg kg^−1 oral, SH-SY5Y tumour
[8] = after ATRA 100 mg kg^−1 oral, liver
[9] = after ATRA 100 mg kg^−1 oral, plasma
[10] = liver, 100 mg kg^−1, after 13cisRA 100 mg kg^−1 oral, liver, read-out: Liver concentration, 0.5 h
[11] = liver, 100 mg kg^−1, after 13cisRA 100 mg kg^−1 oral, liver, read-out: Liver concentration, 2 h
[12] = liver, 100 mg kg^−1, after 13cisRA 100 mg kg^−1 oral, liver, read-out: Liver concentration, 6 h
[13] = liver, 100 mg kg^−1, after ATRA 100 mg kg^−1 oral, liver, read-out: Liver concentration, 0.5 h
[14] = liver, 100 mg kg^−1, after ATRA 100 mg kg^−1 oral, liver, read-out: Liver concentration, 2 h
[15] = liver, 100 mg kg^−1, after ATRA 100 mg kg^−1 oral, liver, read-out: Liver concentration, 6 h
[16] = plasma, 100 mg kg^−1, after 13cisRA 100 mg kg^−1 oral, plasma, read-out: Plasma concentration, 0.5 h
[17] = plasma, 100 mg kg^−1, after 13cisRA 100 mg kg^−1 oral, plasma, read-out: Plasma concentration, 2 h
[18] = plasma, 100 mg kg^−1, after 13cisRA 100 mg kg^−1 oral, plasma, read-out: Plasma concentration, 6 h
[19] = plasma, 100 mg kg^−1, after ATRA 100 mg kg^−1 oral, plasma, read-out: Plasma concentration, 0.5 h
[20] = plasma, 100 mg kg^−1, after ATRA 100 mg kg^−1 oral, plasma, read-out: Plasma concentration, 2 h
[21] = plasma, 100 mg kg^−1, after ATRA 100 mg kg^−1 oral, plasma, read-out: Plasma concentration, 6 h
[22] = tumour (SH-SY5Y xenograft), 100 mg kg^−1, after 13cisRA 100 mg kg^−1 oral, SH-SY5Y tumour, read-out: Tumour concentration, 0.5 h
[23] = tumour (SH-SY5Y xenograft), 100 mg kg^−1, after 13cisRA 100 mg kg^−1 oral, SH-SY5Y tumour, read-out: Tumour concentration, 2 h
[24] = tumour (SH-SY5Y xenograft), 100 mg kg^−1, after 13cisRA 100 mg kg^−1 oral, SH-SY5Y tumour, read-out: Tumour concentration, 6 h
[25] = tumour (SH-SY5Y xenograft), 100 mg kg^−1, after ATRA 100 mg kg^−1 oral, SH-SY5Y tumour, read-out: Tumour concentration, 0.5 h
[26] = tumour (SH-SY5Y xenograft), 100 mg kg^−1, after ATRA 100 mg kg^−1 oral, SH-SY5Y tumour, read-out: Tumour concentration, 2 h
[27] = tumour (SH-SY5Y xenograft), 100 mg kg^−1, after ATRA 100 mg kg^−1 oral, SH-SY5Y tumour, read-out: Tumour concentration, 6 h

% Total retinoids, tumour, 0.5 h [1, 4] [%]	% Total retinoids, tumour, 2 h [1, 4] [%]	% Total retinoids, tumour, 6 h [1, 4] [%]	% Total retinoids, liver, 0.5 h [1, 5] [%]	% Total retinoids, liver, 2 h [1, 5] [%]	% Total retinoids, liver, 6 h [1, 5] [%]	% Total retinoids, plasma, 0.5 h [1, 6] [%]	% Total retinoids, plasma, 2 h [1, 6] [%]	% Total retinoids, plasma, 6 h [1, 6] [%]	% Total retinoids, tumour, 0.5 h [1, 7] [%]	% Total retinoids, tumour, 2 h [1, 7] [%]	% Total retinoids, tumour, 6 h [1, 7] [%]	% Total retinoids, liver, 0.5 h [1, 8] [%]	% Total retinoids, liver, 2 h [1, 8] [%]	% Total retinoids, liver, 6 h [1, 8] [%]	% Total retinoids, plasma, 0.5 h [1, 9] [%]	% Total retinoids, plasma, 2 h [1, 9] [%]	% Total retinoids, plasma, 6 h [1, 9] [%]	concentration at 0.5 h [1, 10] [ng/g]	concentration at 2 h [1, 11] [ng/g]	Structure (SMILES)	other results
7	14	16	2	1	<1	5	3	1	90	95	80	77	81	46	91	88	70	120 ± 80	50 ± 50	CC1=C(/C=C/C(C)=C/C=C/C(C)=C/C(=O)O)C(C)(C)CCC1 [ATRA, all-trans-retinoic acid]	Plasma % of total retinoids at all time points ([1]; after 13cisRA 100 mg kg^−1, plasma, 0.5, 2 and 6 h): < 10%; Intratumoral % of total retinoids at all time points ([1]; after ATRA 100 mg kg^−1, tumour, 0.5, 2 and 6 h): ≥ 80%; concentration at 6 h [1, 12]: 20 ± 20 ng/g; concentration at 0.5 h [1, 13]: 3070 ± 1950 ng/g; concentration at 2 h [1, 14]: 6920 ± 1130 ng/g; concentration at 6 h [1, 15]: 2400 ± 360 ng/g; concentration at 0.5 h [1, 16]: 0.69 ± 0.49 µM; concentration at 2 h [1, 17]: 0.57 ± 0.57 µM; concentration at 6 h [1, 18]: 0.08 ± 0.08 µM; concentration at 0.5 h [1, 19]: 13 ± 10.4 µM; concentration at 2 h [1, 20]: 24.4 ± 1.94 µM; concentration at 6 h [1, 21]: 12.8 ± 4.61 µM; Tmax ([1]; plasma): 2 h; concentration at 0.5 h [1, 22]: 150 ± 90 ng/g; concentration at 2 h [1, 23]: 370 ± 160 ng/g; concentration at 6 h [1, 24]: 90 ± 20 ng/g; concentration at 0.5 h [1, 25]: 2590 ± 2280 ng/g; concentration at 2 h [1, 26]: 9410 ± 2230 ng/g; concentration at 6 h [1, 27]: 3780 ± 590 ng/g
90	81	49	75	58	18	93	93	78	2	3	3	11	5	5	5	6	8	3770 ± 1050	2330 ± 110	CC1=C(/C=C/C(C)=C/C=C/C(C)=C\C(=O)O)C(C)(C)CCC1 [13cisRA, 13-cis-retinoic acid]	Plasma % of total retinoids at all time points ([1]; after ATRA 100 mg kg^−1, plasma, 0.5, 2 and 6 h): < 10%; concentration at 6 h [1, 12]: 980 ± 120 ng/g; concentration at 0.5 h [1, 13]: 420 ± 300 ng/g; concentration at 2 h [1, 14]: 400 ± 80 ng/g; concentration at 6 h [1, 15]: 250 ± 60 ng/g; concentration at 0.5 h [1, 16]: 14.2 ± 4.71 µM; concentration at 2 h [1, 17]: 19.1 ± 3.26 µM; concentration at 6 h [1, 18]: 4.69 ± 0.52 µM; concentration at 0.5 h [1, 19]: 0.67 ± 0.55 µM; concentration at 2 h [1, 20]: 1.55 ± 0.33 µM; concentration at 6 h [1, 21]: 1.53 ± 0.66 µM; Tmax ([1]; plasma): 2 h; concentration at 0.5 h [1, 22]: 2000 ± 670 ng/g; concentration at 2 h [1, 23]: 2120 ± 570 ng/g; concentration at 6 h [1, 24]: 280 ± 40 ng/g; concentration at 0.5 h [1, 25]: 70 ± 70 ng/g; concentration at 2 h [1, 26]: 280 ± 70 ng/g; concentration at 6 h [1, 27]: 150 ± 30 ng/g; concentration at 6 h [2]: 220 ± 40 ng/g; Peak drug levels in patients [3]: > 5 µM
